Test results taken from patent US12297224B2, “Crystal form, preparation method, and application of 4'-substituted nucleoside” (Henan Genuine Biotech Co., Ltd., priority 2018, dated 2025).
Read-outs that look alike come from different tables or passages of the source.

Experiments:
[1] = tested on: HIV; details: literature (Michailidis et al 2009); read-out: anti-HIV EC50; cited from earlier work
[2] = tested on: HIV-1 (HIV-luc/JRFL); assay: microbe, parasite or virus in culture; format: cell-based; details: for EC50: read-out: anti-HIV activity EC50 (50% effective concentration)
Text: The plasmids used for packaging pseudotyped single-cycle infectious HIV-1 (HIV-luc/JRFL) are as follows: the plasma pLAI-Aenv-Luc contains HIV-1 isolate in which Env and Vpr genes are deleted and luciferase gene is inserted into the Nef locus; and the plasma pJRFL contains CCR5-tropic HIV-1 env gene; the two plasmas are co-transfected into HEK293T cells; the supernatant was collected, filtered, and packaged; and the virion capture was quantified by […] ELISA.
CD4^+ T cells (Hut/CCR5) were cultured in RPMI 1640 medium (Gibco) containing 10% fetal bovine serum (Gibco), 100 U/mL penicillin (Invitrogen), and 100 […] (Invitrogen). 1×10^5 Hut/CCR5 cells were added to the compound Ia or Ib, infected with HIV-luc/JRFL (1 ng p24gag), incubated at 37° C. for 3 hours, washed to remove free virus, and resuspended in cell culture medium, followed by addition of the corresponding compound to be tested, incubated at 37° C. for 3 days, and collected for measurement of the luciferase activity and calculation of the percentage of viral inhibition.
CD4^+ T cells (Hut/CCR5) were cultured in 1640 medium (Gibco) containing 10% fetal bovine serum (Gibco), 100 U/mL penicillin (Invitrogen), and 100 […] (Invitrogen). 1×10^5 Hut/CCR5 cells were added to the compound Ig-TP (CL-002-TP), infected with HIV-luc/JRFL (1 ng p24gag), incubated at 37° C. for 3 hours, washed to remove free virus, and resuspended in cell culture medium, followed by addition of the corresponding compound to be tested, incubated at 37° C. for 3 days, and collected for measurement of the luciferase activity and calculation of the percentage of virus inhibition.

[3] = in vitro; format: cell-based; details: human
Method: (§1) CD4^+ T cells (Hut/CCR5) were plated into the wells of a 96-well plate ([…]), followed by addition of different compounds to be tested; the 96-well plate was incubated at 37° C. in an incubator for 3 days; 20 μL of MTT solution was added into the wells ([…]) of the 96-well plate; the 96-well plate was incubated at 37° C. in the incubator for 4 hours; 100 μL of Formazan solution was added into the wells of the 96-well plate; the 96-well plate was incubated at 37° C. in the incubator until the complete dissolution of Formazan was observed by a common optical microscope; and the absorbance of the solution was measured at 570 nm (as shown in FIGS. 2 and 4).
(§2) The cytotoxicity of the compound Ig-TP on CD4^+ T cells (Hut/CCR5) was measured using MTT assay.

[4] = Drug concentration in PBMC after oral administration in rhesus monkeys; format: in vivo; design: concentration of Ig-TP in PBMC: unit not given here; details: for Drug concentration in PBMC, Compound 3TC-TP: oral 3TC 20 mg/kg
Method: The PBMC was separated from the remaining venous blood with Ficoll-Paque separation medium, condensed to 0.3 mL of cell suspension, counted, and stored frozen below −20° C.
The PBMC sample was crushed with an ultrasonic cell crusher, followed by addition of 3 times volume of acetonitrile, vortexed for 60 seconds, followed by 1 volume of the water, vortexed for 60 seconds, and centrifuged at 3000 rpm for 5 minutes; the supernatant was aspirated, transferred into a 10 mL round-bottom glass tube, dried in a stream of nitrogen at 40° C., and redissolved in 500 μL of methanol solution (methanol: water=2:8 (v/v)); the resulting solution was vortexed for 60 seconds, transferred into a 1.5 mL EP tube, centrifuged at 13000 rpm for 5 minutes, filtered, and centrifuged to obtain […] of supernatant for […] analysis.

[5] = tested on: CD4+ T cells (Hut/CCR5); assay: in vitro; format: cell-based
Method: as §1, §2

[6] = Drug concentration in plasma after oral administration in rhesus monkeys; format: in vivo; details: oral 6 mg/kg compound Ia, 24 hours
[7] = Human immunodeficiency virus 1, Hut/CCR5, 72 h

C#C[C@]1(CO)O[C@@H](n2cnc3c(N)ncnc32)C[C@@H]1O [EdA, 4′-ethynyl-2′-deoxyadenosine]
EC50 [1]: 11 nM

[N-]=[N+]=NC1(CO)OC(n2cnc3c(N)nc(F)nc32)C(F)C1O (stereo not drawn) [Ib]
EC50 [2, 7]: 0.62 nM
CC50 at 3 days [3]: > 149000 nM

Nc1ccn([C@@H]2CS[C@H](COP(=O)(O)OP(=O)(O)OP(=O)(O)O)O2)c(=O)n1 [Compound 3TC-TP, reference compound]
Drug concentration in PBMC, Compound 3TC-TP ([4]; 1 h): 0.51 pmol/10^6 cells
Drug concentration in PBMC, Compound 3TC-TP ([4]; 6 h): 2.45 pmol/10^6 cells

[N-]=[N+]=NC1(COP(=O)(O)OP(=O)(O)OP(=O)(O)O)OC(n2ccc(N)nc2=O)CC1O (stereo not drawn) [Compound Ig-TP]
inhibition of HIV viral proliferation IC50 ([2]; Hut/CCR5 cells, HIV-luc/JRFL): 0.373 ng/mL
EC50 ([2]; Hut/CCR5 cells, HIV-luc/JRFL, 3 days): 1.3 nM
IC50 ([2]; Hut/CCR5 cells, HIV-luc/JRFL, read-out: inhibition of HIV viral proliferation IC50): 1.3 nM
CC50 [5]: 8130 nM
cytotoxicity CC50 [5]: 2,328 ng/ml
Drug concentration in PBMC, Compound Ig-TP ([4]; oral compound Ig 1 mg/kg, 1 h): 0.39 pmol/10^6 cells
Drug concentration in PBMC, Compound Ig-TP ([4]; oral compound Ig 1 mg/kg, 6 h): 2.10 pmol/10^6 cells
Drug concentration in PBMC, Compound Ig-TP ([4]; oral compound Ig 1 mg/kg, 24 h): 0.29 pmol/10^6 cells
Drug concentration in PBMC, Compound Ig-TP ([4]; oral compound Ig 1 mg/kg, 72 h): 0.66 pmol/10^6 cells
Drug concentration in PBMC, Compound Ig-TP ([4]; oral compound Ig 1 mg/kg, 120 h): 0.54 pmol/10^6 cells
Drug concentration in PBMC, Compound Ig-TP ([4]; oral compound Ig 6 mg/kg, 1 h): 0.23 pmol/10^6 cells
Drug concentration in PBMC, Compound Ig-TP ([4]; oral compound Ig 6 mg/kg, 6 h): 4.07 pmol/10^6 cells
Drug concentration in PBMC, Compound Ig-TP ([4]; oral compound Ig 6 mg/kg, 24 h): 0.44 pmol/10^6 cells
Drug concentration in PBMC, Compound Ig-TP ([4]; oral compound Ig 6 mg/kg, 72 h): 1.85 pmol/10^6 cells
Drug concentration in PBMC, Compound Ig-TP ([4]; oral compound Ig 6 mg/kg, 120 h): 1.35 pmol/10^6 cells
concentration of Ig-TP in PBMC ([4]; rhesus monkeys, oral 6 mg/kg compound Ig, 120 hours (5 days)): 1.35

C#CC1(CO)OC(n2cnc3c(N)nc(F)nc32)C(F)C1O (stereo not drawn) [Compound Ia]
compound Ia in plasma [6]: undetectable
EC50 [2, 7]: 0.9 nM
CC50 at 3 days [3]: > 8000 nM
